We go through 12 molecules from ChEMBL document CHEMBL1201862, “PubChem BioAssay data set” (2004).

Test systems include IGROV-1; MCF7; DU-145; MDA-MB-231; NCI-H23; NCI-H460; PC-3; SN12C; Malme-3M; SK-OV-3; HL-60; U-251; OVCAR-8; A498; ACHN; NCI/ADR-RES; OVCAR-3; UACC-257; CAKI-1; MDA-N.
What all share (assay): NCI anticancer screen, dose series, 48 h

The structures appear in SMILES notation.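 A five-concentration, 48-hour dose response in 96-well plates underlies each endpoint, interpolated linearly between surrounding concentrations. Abbreviation: GI50, concentration required for 50% inhibition of growth.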 Calls of active or inactive are those of the source. Rule as the data show it: active = GI50 up to about 1.1 µM and inactive = higher.

On to `CC1(C)O[C@@H]2[C@@H](COC(=O)c3ccccc3)C[C@@H](C#N)[C@@H]2O1`, for which the GI50 in the experiment with IGROV-1, in the experiment with MCF7, with DU-145, in the experiment on MDA-MB-231, in the experiment on NCI-H23 and in the experiment on NCI-H460 was > 100 µM (inactive) in each case. The GI50 in the experiment on PC-3, in the experiment on SN12C, with Malme-3M, in the experiment on SK-OV-3, with HL-60 and in the experiment on U-251 was > 100 µM (inactive) throughout. The GI50 in the experiment on OVCAR-8, in the experiment on A498, in the experiment on ACHN, in the experiment on NCI/ADR-RES and in the experiment on OVCAR-3 was > 100 µM (inactive) each time.

As for `CCCCCCCCCCCCCCCCCCNc1ccn(C2OC(COP(=O)(O)O)C(O)C2O)c(=O)n1` (configuration not stated), the GI50 in the experiment on IGROV-1, in the experiment with MCF7, in the experiment with DU-145, in the experiment on MDA-MB-231, in the experiment on NCI-H23 and in the experiment with UACC-257 was > 100 µM (inactive) each time. Moreover, the GI50 in the experiment with PC-3, with SN12C, with SK-OV-3, in the experiment with U-251, with OVCAR-8 and with CAKI-1 was > 100 µM (inactive) in each case. In addition, the GI50 in the experiment on A498, with ACHN, in the experiment on NCI/ADR-RES and in the experiment on OVCAR-3 was > 100 µM (inactive) each time.

With `C/C(=N\[N+](C)(C)C)C(c1ccccc1)C1(c2ccccc2)C(c2ccccc2)=C1c1ccccc1` (configuration not stated), the GI50 in the experiment on IGROV-1, with NCI-H23, with UACC-257, with NCI-H460, with SN12C and in the experiment with Malme-3M was > 100 µM (inactive) throughout. Moreover, the GI50 is > 100 µM (inactive) with SK-OV-3; > 100 µM (inactive) in the experiment on HL-60; 66.1 µM (inactive) in the experiment on U-251; 67.5 µM (inactive) in the experiment on OVCAR-8; > 100 µM (inactive) in the experiment with CAKI-1; > 100 µM (inactive) in the experiment on A498. Moreover, the GI50 was 88.1 µM (inactive) with ACHN and > 100 µM (inactive) in the experiment on OVCAR-3.

As for `CC1=NN(C(=O)c2ccc(Cl)cc2)C(=O)/C1=C/c1cccc(O)c1`, the GI50 in the experiment on IGROV-1, in the experiment on NCI-H23, in the experiment with UACC-257, with NCI-H460, in the experiment with SN12C and in the experiment on Malme-3M was > 100 µM (inactive) throughout. For the same molecule, the GI50 in the experiment with SK-OV-3, in the experiment with HL-60, with U-251, in the experiment on OVCAR-8, with CAKI-1 and in the experiment with A498 was > 100 µM (inactive) in each case. Besides, the GI50 with ACHN and in the experiment on OVCAR-3 was > 100 µM (inactive) in each case.

On to `C#CCNC(Cc1ccccc1)C(=O)O` (configuration not stated), for which the GI50 in the experiment with IGROV-1, in the experiment on DU-145, in the experiment on MDA-MB-231, in the experiment on NCI-H23, in the experiment with UACC-257 and in the experiment with NCI-H460 was > 100 µM (inactive) throughout. In addition, the GI50 in the experiment on PC-3, in the experiment with Malme-3M, in the experiment on SK-OV-3, in the experiment with HL-60, with U-251 and in the experiment on OVCAR-8 was > 100 µM (inactive) in each case. Besides, the GI50 with CAKI-1, in the experiment on A498, in the experiment with ACHN, in the experiment on NCI/ADR-RES and with OVCAR-3 was > 100 µM (inactive) throughout.

On to `Cc1oc2c(C)c3oc(=O)cc(C)c3cc2c1CNC(=O)[C@@H]1OCCOCCOCCOCCOCCOC1C(=O)O` (some centres not stated), for which the GI50 in the experiment with IGROV-1, in the experiment on NCI-H23, with UACC-257, in the experiment with NCI-H460, in the experiment on SN12C and with Malme-3M was > 100 µM (inactive) each time. The GI50 with SK-OV-3, in the experiment on HL-60, in the experiment on U-251, in the experiment with OVCAR-8, in the experiment with CAKI-1 and with A498 was > 100 µM (inactive) each time. Also, the GI50 in the experiment with ACHN and with OVCAR-3 was > 100 µM (inactive) each time.

`CCN(CC)CCOC(c1ccccc1)c1ccccc1.CCOC(=O)Nc1ccc(S(=O)(=O)NCCCl)cc1.CCOC(=O)Nc1ccc(S(=O)(=O)NCCCl)cc1.Nc1ccc(C(=O)O)c(O)c1`: the GI50 in the experiment with IGROV-1, with NCI-H23, with UACC-257, in the experiment on NCI-H460, in the experiment on SN12C and with Malme-3M was > 100 µM (inactive) each time. Also, the GI50 in the experiment with SK-OV-3, in the experiment with HL-60, in the experiment on U-251, with OVCAR-8, in the experiment on CAKI-1 and in the experiment on A498 was > 100 µM (inactive) in each case. In addition, the GI50 in the experiment on ACHN and with OVCAR-3 was > 100 µM (inactive) each time.

As for `Cn1cc(NC(=O)c2cc(NC(=O)CCCCCCC(=O)Nc3cc(C(=O)Nc4cc(C(=O)NCCC(=N)N)n(C)c4)n(C)c3)cn2C)cc1C(=O)NCCC(=N)N`, the GI50 was 3.8 µM (inactive) in the experiment on IGROV-1; 3.91 µM (inactive) in the experiment on NCI-H23; 2.2 µM (inactive) in the experiment on UACC-257; 3.68 µM (inactive) in the experiment on NCI-H460; 3.84 µM (inactive) with SN12C; 2.67 µM (inactive) in the experiment on Malme-3M. In addition, the GI50 is > 100 µM (inactive) in the experiment with SK-OV-3; 2.84 µM (inactive) with HL-60; 17.3 µM (inactive) with U-251; 16.3 µM (inactive) in the experiment on OVCAR-8; 11 µM (inactive) in the experiment with CAKI-1; 1.93 µM (inactive) in the experiment with A498. Further, the GI50 with ACHN was 8.85 µM (inactive); in the experiment on OVCAR-3 it was 24.5 µM (inactive).

Take `CCNC1(c2cccc(C)c2)OC(C)(C)c2cccc3cccc1c23` (configuration not stated): the GI50 with IGROV-1 was 17.8 µM (inactive); with MCF7 it was 17.7 µM (inactive); in the experiment with DU-145, 17.7 µM (inactive); in the experiment on NCI-H23, 17.9 µM (inactive); in the experiment on UACC-257 it was 18.8 µM (inactive); in the experiment on NCI-H460, 15.2 µM (inactive). For the same molecule, the GI50 in the experiment with SN12C was 19 µM (inactive); in the experiment on MDA-N it was 19.3 µM (inactive); in the experiment on Malme-3M it was 16.3 µM (inactive); in the experiment with SK-OV-3, 17.7 µM (inactive); in the experiment on HL-60, 0.646 µM (active); in the experiment with U-251, 16.9 µM (inactive). Moreover, the GI50 in the experiment on OVCAR-8 is 18.4 µM (inactive); in the experiment on CAKI-1, 19.8 µM (inactive); with A498, 17.5 µM (inactive); in the experiment with ACHN, 17 µM (inactive); in the experiment with NCI/ADR-RES, 19.8 µM (inactive); in the experiment on OVCAR-3 it was 17.3 µM (inactive).

Regarding `C=CCNC(=O)NC1=CSC2=NC(=O)C3(NN12)c1ccccc1-c1ccccc13`, the GI50 in the experiment with IGROV-1, in the experiment with MCF7, in the experiment with DU-145, in the experiment with MDA-MB-231, in the experiment with NCI-H23 and in the experiment with UACC-257 was > 10 µM (inactive) throughout. In addition, the GI50 in the experiment with NCI-H460, with PC-3, with SN12C, with Malme-3M, in the experiment on SK-OV-3 and in the experiment with HL-60 was > 10 µM (inactive) throughout. Further, the GI50 in the experiment with OVCAR-8, in the experiment on CAKI-1, with ACHN and with NCI/ADR-RES was > 10 µM (inactive) in each case.

For the molecule `c1ccc2c3c([nH]c2c1)[C@H]1C2CCCCN2CN1CC3` (some centres not stated), the GI50 in the experiment with IGROV-1 is > 100 µM (inactive); in the experiment with NCI-H23 it was > 100 µM (inactive); with UACC-257 it was > 100 µM (inactive); in the experiment with NCI-H460, > 100 µM (inactive); in the experiment on SN12C, > 100 µM (inactive); in the experiment on Malme-3M, 83.6 µM (inactive). Also, the GI50 was > 100 µM (inactive) in the experiment on SK-OV-3; 47.2 µM (inactive) in the experiment with HL-60; > 100 µM (inactive) in the experiment with U-251; > 100 µM (inactive) in the experiment on OVCAR-8; > 100 µM (inactive) in the experiment with CAKI-1; > 100 µM (inactive) in the experiment on A498. The GI50 with ACHN and in the experiment with OVCAR-3 was > 100 µM (inactive) in each case.

Turning to `COC1C=COC2(C)Oc3c(C)c(O)c4c(O)c(c(C5SCCS5)c(O)c4c3C2=O)NC(=O)C(C)=C/C=C\C(C)C2OC(C)(C)OC(C2C)C(C)C(OC(C)=O)C1C` (configuration not stated), the GI50 with IGROV-1 was 6.56 µM (inactive); with MCF7 it was 2.92 µM (inactive); in the experiment on DU-145 it was 8.93 µM (inactive); in the experiment with MDA-MB-231, 13.6 µM (inactive); in the experiment on NCI-H23 it was 6.44 µM (inactive); with UACC-257, 2.74 µM (inactive). For the same molecule, the GI50 is 4.21 µM (inactive) in the experiment with NCI-H460; 5.31 µM (inactive) with PC-3; 4.3 µM (inactive) with SN12C; 11.5 µM (inactive) in the experiment with Malme-3M; 17.1 µM (inactive) in the experiment with SK-OV-3; 5.53 µM (inactive) with HL-60. The GI50 in the experiment on U-251 was 4.78 µM (inactive); in the experiment with OVCAR-8, 5.15 µM (inactive); in the experiment with CAKI-1 it was 6.12 µM (inactive); in the experiment on A498, 12.3 µM (inactive); in the experiment with ACHN it was 3.15 µM (inactive); with NCI/ADR-RES, 11.6 µM (inactive). Further, the GI50 in the experiment on OVCAR-3 was 4.78 µM (inactive).
